Test results from the NIST ThermoML archive (doi:10.1016/j.jct.2012.03.011).

Experiments:
[1] = 298.15 K; 101.33 kPa; Liquid; Vibrating tube method
[2] = refractive index (Na D-line) (dimensionless); conditions: 298.15 K; 101.33 kPa; Liquid; Standard Abbe refractometry
[3] = xn = mol fraction of the nth substance listed; conditions: 298.15 K, 101 kPa, Liquid, Vibrating tube method
[4] = excess molar enthalpy (molar enthalpy of mixing); xn = mol fraction of the nth substance listed; conditions: 298.15 K, 101 kPa, Liquid, Calvet calorimetry

CCCCCCCCCCCC [dodecane]
Conditions	mass density [kg/m3]	refractive index
[1]	745.1	–
[2]	–	1.4192

CCCCCCCCCCCC [dodecane] + CCOC(C)=O
Conditions	excess molar enthalpy [kcal/mol]	mass density [kg/m3]
[3], x1 = 0.097	–	860.06
[3], x1 = 0.146	–	846.23
[3], x1 = 0.1976	–	833.46
[3], x1 = 0.2508	–	821.88
[3], x1 = 0.2979	–	812.79
[3], x1 = 0.3903	–	797.68
[3], x1 = 0.4943	–	783.92
[3], x1 = 0.6	–	772.56
[3], x1 = 0.6909	–	764.45
[3], x1 = 0.7392	–	760.65
[3], x1 = 0.7931	–	756.85
[3], x1 = 0.8213	–	754.91
[3], x1 = 0.8798	–	751.38
[3], x1 = 0.9374	–	748.08
[4], x1 = 0.0232	0.0564	–
[4], x1 = 0.0541	0.12	–
[4], x1 = 0.0898	0.184	–
[4], x1 = 0.1316	0.246	–
[4], x1 = 0.18	0.306	–
[4], x1 = 0.2292	0.353	–
[4], x1 = 0.279	0.389	–
[4], x1 = 0.3296	0.416	–
[4], x1 = 0.3789	0.434	–
[4], x1 = 0.4062	0.442	–
[4], x1 = 0.4261	0.444	–
[4], x1 = 0.4718	0.448	–
[4], x1 = 0.4736	0.446	–
[4], x1 = 0.5534	0.43	–
[4], x1 = 0.647	0.385	–
[4], x1 = 0.7424	0.313	–
[4], x1 = 0.8396	0.214	–
[4], x1 = 0.9339	0.101	–

CCOC(C)=O [ethyl acetate]
Conditions	mass density [kg/m3]	refractive index
[1]	894.34	–
[2]	–	1.37

CCCCC(=O)OCC [ethyl pentanoate]
Conditions	mass density [kg/m3]	refractive index
[1]	869.28	–
[2]	–	1.3981

CCCCC(=O)OCC [ethyl pentanoate] + CCCCCCCCCCCC
Conditions	excess molar enthalpy [kcal/mol]	mass density [kg/m3]
[3], x2 = 0.0505	–	858.92
[3], x2 = 0.1024	–	849.09
[3], x2 = 0.1522	–	840.25
[3], x2 = 0.1998	–	832.32
[3], x2 = 0.2496	–	824.53
[3], x2 = 0.3013	–	816.7
[3], x2 = 0.4039	–	802.81
[3], x2 = 0.502	–	790.76
[3], x2 = 0.6026	–	779.67
[3], x2 = 0.6547	–	774.3
[3], x2 = 0.6992	–	769.94
[3], x2 = 0.7485	–	765.35
[3], x2 = 0.7982	–	760.93
[3], x2 = 0.847	–	756.88
[3], x2 = 0.8918	–	753.23
[3], x2 = 0.9497	–	748.76
[4], x2 = 0.043	0.0459	–
[4], x2 = 0.0928	0.0887	–
[4], x2 = 0.1433	0.129	–
[4], x2 = 0.1957	0.163	–
[4], x2 = 0.2488	0.192	–
[4], x2 = 0.3005	0.214	–
[4], x2 = 0.3181	0.219	–
[4], x2 = 0.3511	0.23	–
[4], x2 = 0.3548	0.232	–
[4], x2 = 0.3978	0.242	–
[4], x2 = 0.446	0.25	–
[4], x2 = 0.5012	0.252	–
[4], x2 = 0.5648	0.247	–
[4], x2 = 0.6392	0.23	–
[4], x2 = 0.7228	0.197	–
[4], x2 = 0.8127	0.148	–
[4], x2 = 0.9036	0.0896	–

CCCCC(=O)OCC [ethyl pentanoate] + CCOC(C)=O
Conditions	excess molar enthalpy [kcal/mol]	mass density [kg/m3]
[3], x1 = 0.0482	–	892.36
[3], x1 = 0.0954	–	890.53
[3], x1 = 0.148	–	888.63
[3], x1 = 0.1941	–	887.05
[3], x1 = 0.3047	–	883.64
[3], x1 = 0.4	–	881.02
[3], x1 = 0.4921	–	878.73
[3], x1 = 0.5717	–	876.92
[3], x1 = 0.6556	–	875.16
[3], x1 = 0.6946	–	874.41
[3], x1 = 0.7526	–	873.29
[3], x1 = 0.7924	–	872.6
[3], x1 = 0.8362	–	871.84
[3], x1 = 0.8651	–	871.36
[3], x1 = 0.9263	–	870.36
[3], x1 = 0.9377	–	870.21
[4], x1 = 0.0627	0.0117	–
[4], x1 = 0.1347	0.0213	–
[4], x1 = 0.2071	0.0282	–
[4], x1 = 0.2799	0.0332	–
[4], x1 = 0.3493	0.0351	–
[4], x1 = 0.4144	0.0363	–
[4], x1 = 0.4736	0.0375	–
[4], x1 = 0.5198	0.0368	–
[4], x1 = 0.561	0.0361	–
[4], x1 = 0.6071	0.0347	–
[4], x1 = 0.6645	0.0318	–
[4], x1 = 0.7376	0.0272	–
[4], x1 = 0.8193	0.021	–
[4], x1 = 0.8904	0.0139	–
[4], x1 = 0.9529	0.00717	–
